Laboratory results: patent publication US7763615B2, “Ecteinascidin analogs for use as antitumour agents” (priority 2001, dated 2010)
In brackets after ≈: the same amount, converted by molar mass.

Assays:
[1] = tested on: L8, normal rat skeletal muscle cells; details: 24 h
Protocol: (§2) In order to assess the cytotoxicity of the drugs to normal cells, we used 96 well plates plated at a density of 5000 cells per well (except for the FDC-P1 which were plated at 12,000 cells per well) with normal cell lines (ATCC, Table 1) maintained as per the directions of the ATCC: AML-12, normal mouse liver cells; NRK-52E, normal rat kidney cells; L8, normal rat skeletal muscle cells; FDC-P1, normal mouse myelogeous stem cells; and H9c2 (2-1), normal rat cardiac muscle cells. The cells in each plate were permitted to settle overnight before adding the test drug.
(§3) To each well (100 μl medium) 10 μl of drug in media was added at varying concentrations (1×10-10-0.01 mg/ml final concentration) and further incubated overnight at 37° C. with 5% CO2. After 24 h the following assays were performed. All experiments were repeated at least 3 times and were assayed in duplicate.
(§4) MTS assay (CellTiter 96 aqueous) was performed according to the manufacturer's (Promega) directions (for all cell types). Cell viability (mitochondrial activity) is determined via enzymatic conversion of the formazan substrate.

MEL-28 = assay: cells; format: cell-based
In short: (§1)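 SRB colorimetric read-out (490 nm) after TCA fixation gave GI, TGI and LC values from triplicate wells. Before that, cells (5×10^3/well, RPMI 1640 with 10% FBS, 37 °C, 5% CO2) grew drug-free 18 h and were then continuously exposed 48 h to 10–10^−8 μg/ml compound.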

HT29 = assay: cells; format: cell-based
In short: as §1

A549 = assay: cells; format: cell-based
In short: as §1

IGROV = assay: cells; format: cell-based
In short: as §1

IGROV-ET = assay: cells; format: cell-based
In short: as §1

PANC-1 = assay: cells; format: cell-based
In short: as §1

SK-BR3 = assay: cells; format: cell-based
In short: as §1

DU145 = assay: cells; format: cell-based
In short: as §1

LOVO-DOX = assay: cells; format: cell-based
In short: as §1

K562 = assay: cells; format: cell-based
In short: as §1

LNCAP = assay: cells; format: cell-based
In short: as §1

LOVO = assay: cells; format: cell-based
In short: as §1

CYP3A4 = CYP3A4 (Homo sapiens, UniProt P08684); assay: in vitro; details: CYP3A4 (% inhibition)
Protocol: For CYP3A4 inhibition assay, the compound were tested at 10 μM in duplicate with a 0.25% final concentration of both methanol and acetonitrile in presence of the fluorescent substrate BFC (50 μM). The conversion of the BFC (7-benzyloxy-4-trifluoromethylcoumarin) in HFC (7-hydroxy-4-trifluoromethylcoumarin) was determined spectro-fluormetry after incubation with the enzyme during 30 min at 37° C.
(§5) For both assays, the fluorescent intensity measured at t=0 is subtracted from that measured after the appropriate incubation time. The ratio of signal-to-noise is calculated by comparing the fluorescence in incubations containing the test compound to the control samples containing the same solvent vehicle. The percent of control activity is calculated and reported as percent inhibition.

H-MEC-1 = assay: Inhibition of cells growth by colorimetric assay (SRB), H-MEC-1; format: cell-based
In short: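 SRB colorimetric growth assay: 5×10^3 cells/well, 18 h attachment, 48 h continuous compound exposure at 10–10^−8 μg/ml in DMSO/EtOH/PBS. TCA fixation, SRB stain, OD 490 nm; triplicate wells, GI, TGI and LC derived.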

[2] = tested on: FDC-P1, normal mouse myelogeous stem cells; details: 24 h
Protocol: as §2, §3, §4

physchem [3] = details: pH 7.4, aqueous buffer, Solubility Dulbecco's PBS pH 7.4
[4] = tested on: AML-12, normal mouse liver cells; details: 24 h
[5] = tested on: NRK-52E, normal rat kidney cells; details: 24 h
(HEPG2) = details: human, 24 h, 30 μM
CYP2D6 = CYP2D6 (Homo sapiens, UniProt P10635); assay: in vitro; details: CYP2D6 (% inhibition)
Protocol: For CYP2D6 inhibition assay, the compound are tested at 10 μM in duplicate with a 0.25% final concentration of both methanol and acetonitrile in presence of the fluorescent substrate AMMC (3-[2-N,N-diethyl-N-methylammonium)ethyl]-7-methoxy-4-methylcoumarin) at the concentration of 1.5 μM). The conversion of the AMMC in AHMC (3-[2-N,N-diethyl-N-methylammonium)ethyl]-7-hydroxy-4-methylcoumarin) is determined spectrofluorimetry after incubation with the enzyme during 450 min at 37° C.
as §5

SK-OV3 = assay: Inhibition of cells growth by colorimetric assay (SRB), SK-OV3; format: cell-based
In short: as §1

physchem [6] = details: pH 7.4, log D n-Octanol-Dulbecco's PBS pH 7.4
[7] = s9, 60 min, 1 μM
[8] = tested on: H9c2 (2-1), normal rat cardiac muscle cells; details: 24 h

CYP2D6, sequence (P10635 whole entry): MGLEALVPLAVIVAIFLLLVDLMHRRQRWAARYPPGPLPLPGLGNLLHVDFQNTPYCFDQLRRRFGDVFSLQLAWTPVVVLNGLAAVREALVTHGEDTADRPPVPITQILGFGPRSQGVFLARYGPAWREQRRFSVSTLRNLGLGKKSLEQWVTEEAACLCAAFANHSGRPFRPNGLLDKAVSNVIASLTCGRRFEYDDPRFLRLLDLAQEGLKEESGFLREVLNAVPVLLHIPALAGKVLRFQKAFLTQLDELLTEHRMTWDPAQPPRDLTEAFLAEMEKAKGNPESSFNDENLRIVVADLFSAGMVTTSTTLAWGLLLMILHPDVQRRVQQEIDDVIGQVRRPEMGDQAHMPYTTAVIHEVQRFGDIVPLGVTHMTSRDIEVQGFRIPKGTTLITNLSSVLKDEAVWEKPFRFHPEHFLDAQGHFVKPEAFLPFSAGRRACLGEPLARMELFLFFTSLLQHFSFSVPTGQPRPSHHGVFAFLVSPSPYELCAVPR
CYP3A4, sequence (P08684 whole entry): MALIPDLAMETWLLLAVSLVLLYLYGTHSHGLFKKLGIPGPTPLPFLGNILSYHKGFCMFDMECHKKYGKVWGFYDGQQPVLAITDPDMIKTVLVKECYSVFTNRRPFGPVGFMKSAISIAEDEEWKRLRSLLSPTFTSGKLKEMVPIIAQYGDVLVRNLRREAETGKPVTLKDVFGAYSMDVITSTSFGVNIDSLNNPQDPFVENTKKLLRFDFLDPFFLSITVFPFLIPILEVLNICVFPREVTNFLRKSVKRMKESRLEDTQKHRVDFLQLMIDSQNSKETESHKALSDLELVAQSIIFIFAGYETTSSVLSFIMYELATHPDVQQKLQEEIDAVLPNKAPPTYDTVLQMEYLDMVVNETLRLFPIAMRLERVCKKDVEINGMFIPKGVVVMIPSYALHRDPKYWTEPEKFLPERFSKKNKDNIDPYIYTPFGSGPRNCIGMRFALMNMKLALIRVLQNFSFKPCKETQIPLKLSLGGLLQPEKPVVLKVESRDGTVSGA

`COc1c(C)cc2c(c1OC(=O)OC(C)(C)C)[C@@H]1C3[C@@H]4SC[C@]5(NCCc6c5[nH]c5ccccc65)C(=O)COC[C@@H](c5c6c(c(C)c(OC(C)=O)c54)OCO6)N3[C@@H](O)[C@H](C2)N1C` (some centres unmarked) [Compound 46] gave a Skeletal [1] of 2.16E−07, a GI50 (MEL-28; Homo sapiens, SK-MEL-28, MEL-28) of 12.4 nM and a CC50 (MEL-28; Homo sapiens, SK-MEL-28, read-out: LC50, MEL-28) of 153 nM. The TGI (MEL-28; MEL-28) was 4.07E−08, the TGI (HT29; HT29) was 1.22E−06 and the GI50 (HT29; Homo sapiens, HT-29, HT29) was 44.4 nM. The CC50 (HT29; Homo sapiens, HT-29, read-out: LC50, HT29) was ≥ 11.7 µM, the TGI (A549; A549) was 6.78E−08 and the GI50 (A549; Homo sapiens, A549, A549, read-out: GI50) was 33.3 nM. It also gave a CC50 (A549; Homo sapiens, A549, read-out: LC50, A549) of 335 nM, a TGI (IGROV) of 5.40E−08 and a GI50 (IGROV; Homo sapiens) of 23.2 nM. For the same compound, the CC50 (IGROV; Homo sapiens, read-out: LC50, IGROV) was 192 nM, the GI50 (IGROV-ET; Homo sapiens, IGROV-ET) was 49.5 nM and the CC50 (IGROV-ET; Homo sapiens, read-out: LC50, IGROV-ET) was 7.35 µM. The TGI (IGROV-ET; IGROV-ET) was 1.29E−07, the GI50 (PANC-1; Homo sapiens, PANC-1, PANC-1) was 41.1 nM and the CC50 (PANC-1; Homo sapiens, PANC-1, read-out: LC50, PANC-1) was ≥ 11.7 µM. It also gave a TGI (PANC-1; PANC-1) of 2.58E−07, a GI50 (SK-BR3; Homo sapiens, SK-BR-3, SK-BR3) of 16.3 nM and a CC50 (SK-BR3; Homo sapiens, SK-BR-3, read-out: LC50, SK-BR3) of 412 nM. For the same compound, the TGI (SK-BR3; SK-BR3) was 5.84E−08, the TGI (DU145; DU145) was 4.61E−08 and the GI50 (DU145; Homo sapiens, DU-145, DU145) was 6.48 nM. For the same compound, the CC50 (DU145; Homo sapiens, DU-145, read-out: LC50, DU145) was ≥ 11.7 µM, the GI50 (LOVO-DOX; Homo sapiens, LOVO-DOX) was 38.2 nM and the CC50 (LOVO-DOX; Homo sapiens, read-out: LC50, LOVO-DOX) was ≥ 11.7 µM. For the same compound, the TGI (LOVO-DOX; LOVO-DOX) was 2.41E−07, the GI50 (K562; Homo sapiens, K562, K562) was 1220 nM and the CC50 (K562; Homo sapiens, K562, read-out: LC50, K562) was 3.38 µM. It also gave a TGI (K562; K562) of 2.02E−06, a GI50 (LNCAP; Homo sapiens, LNCaP) of 0.117 nM and a CC50 (LNCAP; Homo sapiens, LNCaP, read-out: LC50, LNCAP) of 17.5 nM. The TGI (LNCAP; LNCAP) was 3.25E−09, the GI50 (LOVO; Homo sapiens, LoVo) was 15.6 nM and the CC50 (LOVO; Homo sapiens, LoVo, read-out: LC50, LOVO) was ≥ 11.7 µM. The TGI (LOVO; LOVO) was 5.70E−08, the inhibition at 30 min, 10 µM (CYP3A4) was 60% and the TGI (H-MEC-1; H-MEC-1) was 1.17E−06. For the same compound, the GI50 (H-MEC-1; Homo sapiens, HMEC-1, H-MEC-1) was 26 nM, the CC50 (H-MEC-1; Homo sapiens, HMEC-1, read-out: LC50, H-MEC-1) was ≥ 11.7 µM and the Myelo [2] was 1.17E−07. For the same compound, the solubility (physchem [3]) was 1.37 µM (≈ 1.19 µg/mL), the Liver [4] was 5.01E−08 and the Kidney [5] was 4.01E−08. For the same compound, the “Cell Viability (% inhibition)” value ((HEPG2)) was 33 % inhibition, the inhibition at 450 min, 10 µM (CYP2D6) was 16% and the GI50 (SK-OV3; Homo sapiens, SK-OV-3, SK-OV3) was 30.6 nM. The CC50 (SK-OV3; Homo sapiens, SK-OV-3, read-out: LC50, SK-OV3) was ≥ 11.7 µM, the TGI (SK-OV3; SK-OV3) was 2.00E−06 and the logD at 60 min (physchem [6]) was > 5. The “Human Liver S9 Metabolic Stability (% remaining)” value [7] was 7 % remaining and the Heart [8] was 3.51E−08.
